The conditions of data set [1]: patient, four cycles of treatment; cited from earlier work.
Data set [2] deals with AR42J tumor xenografts. Description: Biodistribution of 99mTc-labeled compounds in nude mice with AR42J tumor xenografts. Format: in vivo. Conditions: 99mTc-labeled compound, 90 minutes post-injection; for TUMOR: i.v.; for T:B: tumor to blood ratio; for T:M: tumor to muscle ratio. As to the method: (§1) Rat pancreatic AR42J cells (ATCC, Rockville, Md., USA) were grown in Modified Ham's F12K medium (Cat. No. N-3520, Sigma, St. Louis, Mo., USA) containing 20% fetal bovine serum (FCS) (Cat. No. 1224, Lot No. 9702058, Sigma, St. Louis, Mo., USA) under sterile conditions in 95% humidity and 5% CO2. At a density of approximately 10×10^6 cells per T150 flask, the cells were harvested with trypsin and collected by centrifugation at 2400 rpm (800×g) for 15 minutes in a benchtop centrifuge (IEC Centra-8 tabletop centrifuge, International Equipment Company, Needham, Mass., USA). The cells were resuspended in medium containing 20% FCS for implantation.
(§2) Six female nude mice (CrlLNU/NU-nuBR, 6-8 weeks old) were injected subcutaneously into the right flank with tumor cells (2×10^7/100 μL) in 20% matrigel (Collaborative Biomedical Products, Chicago, Ill., USA). Fourteen days after inoculation tumors were visible in all animals. Three weeks after inoculation, tumors were aseptically dissected, minced and implanted into 60 nude mice using a trochar. The tumor xenografts from the second passage were used for biodistribution studies.
(§3) A dose of approximately 50-100 μCi ^99mTc-labeled compound/mouse was injected intravenously in a total volume of 100 μL. Mice were sacrificed 90 minutes post-injection by decapitation and the trunk blood was collected. Tumors (1 to 3 per mouse), liver, gastrointestinal tract, kidneys, and samples of muscle from both legs (quadriceps femoralis) were collected, weighed, and counted for radioactivity.

Assay in data set [3]: as above
Format: in vivo. As to conditions: nude, mouse, iv, total radioactivity, 99mTc-labeled compound, 90 minutes post-injection; for tissue uptake dose at 1.5 h: i.v. On the procedure: as §1, §2, §3

Data set [4] deals with SSTRs, NCI-H69 membranes. Description: [125I]SST-14 binding to NCI-H69 cell membranes (SSTR affinity). On the set-up: species or system human. As to conditions: inhibition of [125I]SST-14 binding, two-site fit. As to the method: (§4) [^125I-Tyr^11] somatostatin-14 ([^125I]SST-14) was obtained from Amersham. Unlabeled somatostatin-14 was purchased either from BACHEM (Torrance, Calif.) or from Sigma Chemical Co. (St. Louis, Mo.). Protease inhibitors, leupeptin, aprotinin, bacitracin, and benzamidine and other reagents were obtained from Sigma. Protease inhibitors were prepared in dimethylsulfoxide (DMSO) at a concentration 500×higher than the final assay concentration. The prepared protease solution was stored at −20° C. and diluted with the buffer solution before use.
Membrane preparations used in these studies were prepared from two commercially available tumor cell lines, the human small cell lung cancer cell line, NCI-H69, and the rat pancreatic tumor cell line, AR42J, obtained from American Type Culture Collection (ATCC) (Manassas, Va.). NCI-H69 cells were maintained by serial passage in RPMI 1640 with 10% fetal calf serum. AR42J cells were maintained in F-12K medium containing 20% fetal calf serum. Cells in culture flasks were incubated at 37° C. with 5% CO2 in air atmosphere following the recommendations of the “Product Sheet” from ATCC.
Cultured cells were first detached from plates with phosphate-buffered saline, pH 7.4, containing 2 mM EDTA, and centrifuged at 1,500×g for 10 min. Cells were then resuspended in 5-10 mL of the homogenization buffer (1 mM sodium bicarbonate, pH 7.4, 1 mM EDTA, 1 mM EGTA, 2.5 mM DTT, 5 μg/mL leupeptin, 5 μg/mL aprotinin, 100 μg/mL bacitracin, 100 μg/mL benzamidine) for 10 min on ice. The cells were lysed for 30 sec twice in a polytron with a setting at 5. The lysate was centrifuged at 1,000×g for 10 min at 4° C. The supernatant was centrifuged at 40,000×g for 20 min at 4° C. This step was repeated twice with the homogenization buffer in the absence of protease inhibitors. The pellet was then resuspended at 1-5 mg membrane protein/mL in 25 mM Tris, pH 7.4 without the addition of protease inhibitors and the membranes were stored at −80° C. before use. Membrane protein concentration was determined spectroscopically using the bicinchonic acid (BCA) protein assay kit (Pierce Chemical Inc. (Rockford, Ill.).
All [^125I]SST-14 binding assays were performed in 0.5 mL binding buffer containing 50 mM HEPES, pH 7.5, 10 mM MgCl2, 0.25% BSA (w/v) containing protease inhibitors (same as above) and incubated at 37° C. for 45 minutes. After incubation, samples were kept at 4° C. and rapidly filtered under vacuum through a Whatman GF/B glass fiber filter with a 12-well harvester (Skatron Instruments Inc., Sterling, Va.). The filter was washed for 9 seconds with cold 50 mM HEPES, pH 7.5, 10 mM MgCl2, 0.25% BSA (w/v). Thirty-five […] of [^125I]SST-14 from Amersham was used in each tube. Peptides were solubilized in DMSO and serially diluted with DMSO. Five μL of peptide in DMSO was used to obtain the final concentration. DMSO (5 μL) was added to the tube without the addition of any peptide or unlabeled SST-14, so that each tube contained 1% DMSO. Non-specific binding was defined as the binding of [^125I]SST-14 which was not displaceable with an excess of unlabeled SST-14 at a concentration of 1×10^−6 M. The bound [^125I]SST-14 without or with excess unlabeled SST-14 (1×10^−6 M) was defined as total binding and nonspecific binding, respectively. The difference between total and nonspecific binding was defined as specific binding. The percent inhibition (% Inh) by peptide was expressed as
% Inh=(total binding−total binding in the presence of peptide)/specific binding×100%
Inclusion of protease inhibitors in homogenizing medium as well as assay buffer is essential to maintain the integrity of both [^125I]SST-14 and somatostatin analogs for the receptor binding assay and to obtain optimal specific binding. The highest specific binding was observed when MgCl2 (10 mM) was included. Membranes were finally resuspended in a sodium-free medium and receptor binding assays were performed in the absence of sodium ions. […]

Data set [5] relates to SSTRs, AR42J cell membranes. Description: [125I]SST-14 binding to AR42J cell membranes (SSTR affinity). More on the design: species or system rat. Conditions: inhibition of [125I]SST-14 binding; two-site fit; read-out: IC50 Values for AR42J Cell Membranes (first value). As to the method: as §4
Membrane preparations used in these studies were prepared from two commercially available tumor cell lines, the human small cell lung cancer cell line, NCI-H69, and the rat pancreatic tumor cell line, AR42J, obtained from American Type Culture Collection (ATCC) (Manassas, Va.). […]
Cultured cells were first detached from plates with phosphate-buffered saline, pH 7.4, containing 2 mM EDTA, and centrifuged at 1,500×g for 10 min. […] Membrane protein concentration was determined spectroscopically using the bicinchonic acid (BCA) protein assay kit (Pierce Chemical Inc. (Rockford, Ill.).
All [^125I]SST-14 binding assays were performed in 0.5 mL binding buffer containing 50 mM HEPES, pH 7.5, 10 mM MgCl2, 0.25% BSA (w/v) containing protease inhibitors (same as above) and incubated at 37° C. for 45 minutes. […] The percent inhibition (% Inh) by peptide was expressed as […]

For data set [6] the following is noted: 24 hours post-injection, cited from earlier work.
The mark [7] stands for this setting: read-out: IC50 Values for Uncomplexed Compounds, NCI-H69 (first value).
The mark [8] stands for this setting: read-out: IC50 Values for Uncomplexed Compounds, NCI-H69 (second value).

Like-named read-outs stand apart in the source and are kept apart here. *1 amine or outer side, *2 acyl side, *3 side chain or, on linkers, in order; H or OH if unused. Where a SMILES comes first, the peptide text is derived from it. Bridges are numbered along the chain shown (N, C = ends). Roman numbers before positions name the chains, in order. [ ]: non-standard residue; d: D form. ξ: configuration not given here. Phe(4-NH2) = Nc1ccc(C[C@H](N)C(=O)O)cc1; NMehCys = CN[C@@H](CCS)C(=O)O; Thr(3ξ) = CC(O)[C@H](N)C(=O)O; Dap = NC[C@H](N)C(=O)O; X1 = O=C(C[*:1])[*:2] Bounds are passed on as bounds.

Take ^90Y-DOTA-lanreotide: in data set [1], the 90Y kidney doses was 1.98-2.43 mGy/MBq and the spleen doses is 1.68-3.35 mGy/MBq.
Consider `CC(O)[C@H](NC(=O)[C@H](CS)NC(=O)[C@H](Cc1ccc(N)cc1)NC(=O)[C@@H](N)CNC(=O)CSCC[C@H]1C(=O)N[C@@H](Cc2ccc(O)cc2)C(=O)N[C@H](Cc2c[nH]c3ccccc23)C(=O)N[C@@H](CCCCN)C(=O)N[C@@H](C(C)O)C(=O)N[C@@H](Cc2ccccc2)C(=O)N1C)C(=O)N[C@@H](CO)C(=O)O` (stereo partly drawn) [cyclo-Tyr-D-Trp-Lys-Thr-Phe-(N—CH3)Hcy(CH2CO-β-Dap-Phe(4—NH2)-Cys-Thr-Ser)] (I: cyclo(F[NMehCys]Y[dW]K[Thr(3ξ)]) / II: H-[Dap][Phe(4-NH2)]C[Thr(3ξ)]S-OH; linker I:2-II:1 via X1), for which the TUMOR in data set [2] stood at 24.7 %ID/g. Besides, in data set [2], the “T:B” value stood at 29. Also, in data set [2], the “T:M” value is given as 127. Besides, the tissue uptake dose at 1.5 h is 8 %ID in data set [3] (gastrointestinal tract, read-out: GI) and 0.21 %ID in data set [3] (spleen, read-out: Spleen). Also, the tissue uptake at 1.5 h in data set [3] (kidneys) came out at 4.8 %ID/g. Also, the dose excreted at 1.5 h in data set [3] (urine) was 59%. Also, the figures for the IC50 in data set [4] (setting [7]), in data set [4] (setting [8]) and in data set [5] were 0.201 nM, 8.91 nM and 0.433 nM, respectively.
In the case of ^111In-DOTA-lanreotide, the “retention in human liver” value in data set [6] is recorded as “about 3.2 % injected dose”. In data set [6] (human), the retention in kidney result is “about 2.5 % injected dose” and the retention in spleen entry is on record as “about 1.2 % injected dose”.
As for `C[C@@H](O)[C@@H]1NC(=O)[C@H](CCCCN)NC(=O)[C@@H](Cc2c[nH]c3ccccc23)NC(=O)[C@H](Cc2ccc(O)cc2)NC(=O)[C@H](CCSCC(=O)NC[C@H](N)C(=O)N[C@@H](CCCCN)C(=O)N[C@@H](CS)C(=O)N[C@H](CO)[C@@H](C)O)N(C)C(=O)[C@H](Cc2ccccc2)NC1=O` [cyclo-Tyr-D-Trp-Lys-Thr-Phe-(N—CH3)Hcy(CH2 CO-β-Dap-Lys-Cys-Thr(ol))], in data set [2], the TUMOR amounted to 10.2 %ID/g, the “T:B” value worked out at 48 and the “T:M” value was found to be 104. In addition, in data set [4] (setting [7]), the IC50 came to 0.346 nM. For the same molecule, the IC50 in data set [4] (setting [8]) stood at 234 nM.
With `C[C@@H](O)[C@@H]1NC(=O)[C@H](CCCCN)NC(=O)[C@@H](Cc2c[nH]c3ccccc23)NC(=O)[C@H](Cc2ccc(O)cc2)NC(=O)[C@H](CCSCC(=O)NC[C@H](N)C(=O)N[C@@H](CCN)C(=O)N[C@@H](CS)C(=O)NC(CO)CO)N(C)C(=O)[C@H](Cc2ccccc2)NC1=O` [cyclo-Tyr-D-Try-Lys-Thr-Phe-(N—CH3)Hcy(CH2 CO-β-Dap-Dab-Cys-Ser(ol))], in data set [2], the TUMOR was 10.8 %ID/g, the “T:B” value is reported as 30 and the “T:M” value is recorded as 89. Besides, the IC50 in data set [4] (setting [7]) is 1.08 nM.
As to `C[C@@H](O)[C@@H]1NC(=O)[C@H](CCCCN)NC(=O)[C@@H](Cc2c[nH]c3ccccc23)NC(=O)[C@H](Cc2ccc(O)cc2)NC(=O)[C@H](CCSCC(=O)NC[C@H](N)C(=O)N[C@@H](Cc2c[nH]cn2)C(=O)N[C@@H](CS)C(=O)N[C@H](CO)[C@@H](C)O)N(C)C(=O)[C@H](Cc2ccccc2)NC1=O` [cyclo-Tyr-D-Trp-Lys-Thr-Phe-(N—CH3)Hcy(CH2 CO-β-Dap-His-Cys-Thr(ol))], in data set [2], the TUMOR worked out at 15.5 %ID/g, the “T:B” value came out at 29 and the “T:M” value is given as 96. In data set [4] (setting [7]), the concentration for half-maximal inhibition (IC50) was determined as 0.861 nM.
For the molecule `C[C@@H](O)[C@@H]1NC(=O)[C@H](CCCCN)NC(=O)[C@@H](Cc2c[nH]c3ccccc23)NC(=O)[C@H](Cc2ccc(O)cc2)NC(=O)[C@H](CCSCC(=O)NC[C@H](N)C(=O)N[C@@H](CO)C(=O)N[C@@H](CS)C(=O)N[C@H](CO)[C@@H](C)O)N(C)C(=O)[C@H](Cc2ccccc2)NC1=O` [cyclo-Tyr-D-Trp-Lys-Thr-Phe-(N—CH3)Hcy(CH2 CO-β-Dap-Ser-Cys-Thr(ol))], in data set [2], the TUMOR came to 12.6 %ID/g, the “T:B” value is 31 and the “T:M” value was determined as 144. The IC50 in data set [4] (setting [7]) turned out to be 1.57 nM. Further, the concentration for half-maximal inhibition (IC50) in data set [4] (setting [8]) was less than 0.001 nM.
The corresponding values for `C[C@@H](O)[C@H](NC(=O)CSCC[C@H]1C(=O)N[C@@H](Cc2ccc(O)cc2)C(=O)N[C@H](Cc2c[nH]c3ccccc23)C(=O)N[C@@H](CCCCN)C(=O)N[C@@H]([C@@H](C)O)C(=O)N[C@@H](Cc2ccccc2)C(=O)N1C)C(=O)NCC(=O)NCC(=O)N[C@@H](CS)C(N)=O` [cyclo-Tyr-D-Trp-Lys-Thr-Phe-(N—CH3)Hcy(CH2 CO-Thr-Gly-Gly-Cys-NH2)] are 3.81 %ID/g, 30, 95, 1.63 nM and 24300 nM.
